Key:
AC1 = AC1 (Homo sapiens, UniProt Q08828); assay: Adenylyl cyclase cAMP accumulation assay, HEK-ACA3/6 cells overexpressing human AC1; format: cell-based; set-up: expressed in transfected cells; host or cells: HEK-ACA3/6 cells (so in the source) overexpressing human AC1; details: Table 2; 3 μM A23187 + 0.5 mM IBMX, HTRF cAMP; read-out: AC1 IC50 (μM) ± SEM
Description: Cryopreserved HEK-ACA3/6 cells overexpressing human AC1, AC2, AC5, or AC8 were transferred to a 15 mL Falcon tube and gently resuspended in prewarmed Opti-MEM.50 The cells were centrifuged for 5 min at 150 g, the supernatant was discarded, and the cell pellet was resuspended in 10 mL for a second centrifugation step. Then, the cells were counted, plated in a white opaque 384-well plate, and incubated for 1 h in a 37° C. incubator supplemented with 5% CO2. The hit compounds' working solutions were prepared in prewarmed Opti-MEM, and successive serial dilutions were prepared using a Precision 2000 automated pipetting system. Dose*-response curves were generated for each hit compound using a threefold serial dilution starting at 30 μM concentration (at least 6-points per curve). Compounds were added to the assay plates and incubated for 30 min at room temperature. AC activity was selectively stimulated on each AC isoform with 3 μM A23187 (AC1 and AC8), 100 nM PMA (AC2), or a low concentration (1 μM) of the AC activator, forskolin (AC5). All stimulants of AC activity were added in combination with IBMX at a final concentration of 0.5 mM. After 1 h incubation with the stimulant at room temperature, cAMP accumulation was detected using the fluorescence-based Cisbio HTRF cAMP detection kit. […] Percent inhibition at the highest concentration was used to determine max % inhibition (Max AC8% Inhibition). […]

AC8 = AC8 (Homo sapiens, UniProt P40145); assay: Adenylyl cyclase cAMP accumulation assay, HEK-ACA3/6 cells overexpressing human AC8; format: cell-based; set-up: expressed in transfected cells; host or cells: HEK-ACA3/6 cells (so in the source) overexpressing human AC8; details: Table 2; for IC50: 3 μM A23187 + 0.5 mM IBMX, HTRF cAMP, read-out: AC8 IC50 (μM) ± SEM; for inhibition at up to 30 µM: percent inhibition at the highest concentration (dilution starting at 30 μM), read-out: Max AC8 % inhibition
Description: Cryopreserved HEK-ACA3/6 cells overexpressing human AC1, AC2, AC5, or AC8 were transferred to a 15 mL Falcon tube and gently resuspended in prewarmed Opti-MEM.50 The cells were centrifuged for 5 min at 150 g, the supernatant was discarded, and the cell pellet was resuspended in 10 mL for a second centrifugation step. Then, the cells were counted, plated in a white opaque 384-well plate, and incubated for 1 h in a 37° C. incubator supplemented with 5% CO2. The hit compounds' working solutions were prepared in prewarmed Opti-MEM, and successive serial dilutions were prepared using a Precision 2000 automated pipetting system. Dose*-response curves were generated for each hit compound using a threefold serial dilution starting at 30 μM concentration (at least 6-points per curve). Compounds were added to the assay plates and incubated for 30 min at room temperature. AC activity was selectively stimulated on each AC isoform with 3 μM A23187 (AC1 and AC8), 100 nM PMA (AC2), or a low concentration (1 μM) of the AC activator, forskolin (AC5). All stimulants of AC activity were added in combination with IBMX at a final concentration of 0.5 mM. After 1 h incubation with the stimulant at room temperature, cAMP accumulation was detected using the fluorescence-based Cisbio HTRF cAMP detection kit. […] Percent inhibition at the highest concentration was used to determine max % inhibition (Max AC8% Inhibition).
The Max AC8 inhibition is a description of the maximum efficacy of molecules against AC8.

AC1, sequence (Q08828 whole entry): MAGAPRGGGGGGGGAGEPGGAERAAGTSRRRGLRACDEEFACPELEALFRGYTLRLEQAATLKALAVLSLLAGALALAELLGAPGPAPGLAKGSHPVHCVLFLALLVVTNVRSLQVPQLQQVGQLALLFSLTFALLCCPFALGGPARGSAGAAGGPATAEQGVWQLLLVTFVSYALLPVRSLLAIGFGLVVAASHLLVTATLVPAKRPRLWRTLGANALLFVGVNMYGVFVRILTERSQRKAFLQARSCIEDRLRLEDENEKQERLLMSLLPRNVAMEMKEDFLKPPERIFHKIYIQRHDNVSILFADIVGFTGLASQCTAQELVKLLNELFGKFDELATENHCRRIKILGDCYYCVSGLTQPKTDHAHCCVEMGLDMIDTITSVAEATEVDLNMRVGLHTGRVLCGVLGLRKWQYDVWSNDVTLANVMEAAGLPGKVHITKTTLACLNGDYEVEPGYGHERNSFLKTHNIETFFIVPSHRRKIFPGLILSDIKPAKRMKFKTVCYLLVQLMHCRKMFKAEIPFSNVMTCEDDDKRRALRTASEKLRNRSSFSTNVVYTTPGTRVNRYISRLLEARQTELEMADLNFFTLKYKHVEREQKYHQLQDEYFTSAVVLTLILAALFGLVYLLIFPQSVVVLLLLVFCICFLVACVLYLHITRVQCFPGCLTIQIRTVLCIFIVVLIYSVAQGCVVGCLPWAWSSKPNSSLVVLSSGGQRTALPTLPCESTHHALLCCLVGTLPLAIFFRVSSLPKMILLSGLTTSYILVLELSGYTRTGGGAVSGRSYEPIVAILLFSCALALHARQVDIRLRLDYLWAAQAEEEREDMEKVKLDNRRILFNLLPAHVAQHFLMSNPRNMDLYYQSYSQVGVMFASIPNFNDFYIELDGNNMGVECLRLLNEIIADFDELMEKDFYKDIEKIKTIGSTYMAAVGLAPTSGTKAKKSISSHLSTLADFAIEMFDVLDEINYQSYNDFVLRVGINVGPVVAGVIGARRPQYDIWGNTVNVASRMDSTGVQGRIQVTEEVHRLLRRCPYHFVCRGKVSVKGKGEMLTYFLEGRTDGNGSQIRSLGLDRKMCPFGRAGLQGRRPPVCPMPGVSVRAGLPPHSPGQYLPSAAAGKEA
AC8, sequence (P40145 whole entry): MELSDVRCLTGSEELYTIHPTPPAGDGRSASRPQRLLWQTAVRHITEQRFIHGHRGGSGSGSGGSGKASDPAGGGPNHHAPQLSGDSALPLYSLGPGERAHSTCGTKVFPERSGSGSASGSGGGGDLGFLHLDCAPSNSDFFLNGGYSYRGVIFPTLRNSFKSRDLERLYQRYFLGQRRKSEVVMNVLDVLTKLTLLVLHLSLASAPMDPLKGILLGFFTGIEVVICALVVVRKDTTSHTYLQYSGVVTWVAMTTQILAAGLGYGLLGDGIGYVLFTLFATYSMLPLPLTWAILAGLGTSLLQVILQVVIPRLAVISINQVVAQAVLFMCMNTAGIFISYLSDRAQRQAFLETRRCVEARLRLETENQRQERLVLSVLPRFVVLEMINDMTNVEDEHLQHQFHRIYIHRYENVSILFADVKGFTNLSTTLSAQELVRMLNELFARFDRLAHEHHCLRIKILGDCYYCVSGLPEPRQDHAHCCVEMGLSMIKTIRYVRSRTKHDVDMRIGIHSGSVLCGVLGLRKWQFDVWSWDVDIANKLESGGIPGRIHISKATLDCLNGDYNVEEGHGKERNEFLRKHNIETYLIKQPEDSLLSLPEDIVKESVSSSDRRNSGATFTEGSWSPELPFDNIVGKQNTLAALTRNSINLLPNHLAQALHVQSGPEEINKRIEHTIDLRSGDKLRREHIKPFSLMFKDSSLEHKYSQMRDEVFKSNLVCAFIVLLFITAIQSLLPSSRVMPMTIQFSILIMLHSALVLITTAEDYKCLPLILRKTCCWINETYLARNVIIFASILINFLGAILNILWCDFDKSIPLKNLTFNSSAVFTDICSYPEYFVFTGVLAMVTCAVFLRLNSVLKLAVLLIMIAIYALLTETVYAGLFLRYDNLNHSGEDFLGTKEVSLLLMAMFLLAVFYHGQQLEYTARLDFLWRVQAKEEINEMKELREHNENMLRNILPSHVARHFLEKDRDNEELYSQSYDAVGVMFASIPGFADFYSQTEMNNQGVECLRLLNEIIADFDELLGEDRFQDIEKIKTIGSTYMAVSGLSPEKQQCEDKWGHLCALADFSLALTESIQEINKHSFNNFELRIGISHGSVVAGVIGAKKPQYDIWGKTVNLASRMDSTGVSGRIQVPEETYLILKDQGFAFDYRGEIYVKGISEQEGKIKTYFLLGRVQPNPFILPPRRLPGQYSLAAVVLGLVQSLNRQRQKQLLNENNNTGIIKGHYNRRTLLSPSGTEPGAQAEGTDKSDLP

## CCc1cc(=O)[nH]c(-n2nc(C)cc2NCc2ccc(C(=O)c3ccccc3)cc2)n1 [AC10144A]
AC1
  IC50: 0.26 ± 0.03 µM
AC8
  IC50: 2.01 ± 0.09 µM
  inhibition at up to 30 µM: 84%

## CCc1cc(=O)[nH]c(-n2nc(C)cc2NCc2ccco2)n1 [AC10139A]
AC1
  IC50: 1.07 ± 0.07 µM
AC8
  IC50: > 60 µM
  inhibition at up to 30 µM: 23%

## Cc1cccc(CNc2cc(C)nn2-c2nc(C)cc(=O)[nH]2)c1 [AC10114A]
AC1
  IC50: 0.63 ± 0.22 µM
AC8
  IC50: > 60 µM
  inhibition at up to 30 µM: 33%

## Cc1cc(NCc2ccc(Cl)cc2)n(-c2nc3c(c(=O)[nH]2)CCC3)n1 [AC10110A]
AC1
  IC50: 7.49 ± 2.9 µM
AC8
  IC50: 58.9 ± 36.1 µM
  inhibition at up to 30 µM: 48%

## Cc1cc(=O)[nH]c(-n2nc(C)cc2NCc2ccc(Cl)cc2)n1 [AC10111A]
AC1
  IC50: 0.36 ± 0.12 µM
AC8
  IC50: 31.8 ± 19.3 µM
  inhibition at up to 30 µM: 35%

## CCc1cc(=O)[nH]c(-n2nc(-c3ccccc3)cc2NCc2ccc(OC)cc2)n1 [AC10112A]
AC1
  IC50: 0.86 ± 0.07 µM
AC8
  IC50: 45.3 ± 14.1 µM
  inhibition at up to 30 µM: 37%

## Cc1cc(NCc2ccc(Cl)cc2)n(-c2ccccc2)n1 [AC10113A]
AC1
  IC50: 15.5 ± 8.63 µM
AC8
  IC50: > 60 µM
  inhibition at up to 30 µM: 19%

## Cc1cccc(CNc2cc(C)nn2-c2nccc(=O)[nH]2)c1 [AC10116A]
AC1
  IC50: 2.63 ± 0.51 µM
AC8
  IC50: 8.23 ± 4.05 µM
  inhibition at up to 30 µM: 83%

## Cc1cccc(CNc2cc(C)nn2-c2nc3c(c(=O)[nH]2)CCC3)c1 [AC10115A]
AC1
  IC50: 0.75 ± 0.39 µM
AC8
  IC50: 10.8 ± 4.61 µM
  inhibition at up to 30 µM: 82%

## CCc1cc(=O)[nH]c(-n2nc(C)cc2NCc2cccs2)n1 [AC10140A]
AC1
  IC50: 0.39 ± 0.02 µM
AC8
  IC50: > 60 µM
  inhibition at up to 30 µM: 4%

Source: patent US20230250084A1, “PYRAZOLYL PYRIMIDINONE COMPOUNDS AND THE USES THEREOF” (Purdue Research Foundation, priority 2019, published 2023)
